From US6825340B2, “Methods and reagents for inactivating ribonucleases” (Ambion, Inc., priority 1998, dated 2004)
“Also recorded” adds a separate entry of the source.

Assays:
[1] = target: T1, MMLV reverse transcriptase (Moloney murine leukemia virus, UniProt P03355); assay: Reverse transcription reaction (RETROscript kit), dCTP[α-32P] incorporation; format: biochemical; conditions: 20 mM reducing reagent
T1 construct: purchased Ambion, Inc
Description: FIG. 2. […] Reverse transcriptions were performed using the RETROscript™ kit (Ambion, Inc.). Mouse total RNA in DEPC-treated water was reverse transcribed with either MMLV or AMV reverse transcriptase in the presence or absence of 20 mM DTT. dCTP[α^32P] was included in the reactions to measure the efficiency of reverse transcription. Following incubation at 42° C. for 1 h, 5 μl of each reaction was subjected to TCA precipitation to measure the amount of dCTP[α^32P] incorporated into cDNA by reverse transcription.
The reverse transcription reactions were performed using the RETROscript™ kit (Ambion, Inc.). The following were assembled with or without 20 mM of the reducing reagents in a final volume of 19 μl: dNTPs (0.5 mM each), oligo dT (5 μM), 0.4 μl dCTP[α-^32p] (3000 Ci/mmol), 10 mM Tris-HCl (pH 8.3): 50 mM KCl: 1.5 mM MgCl2, mouse brain total RNA (4 μg). The reaction mixtures were incubated at 65° C. for 10 minutes. 1 μl (100 units) of AMV or MMLV reverse transcriptase were added and then the reactions were incubated at 42° C. for 1 hour. Reverse transcription by either enzyme was not inhibited by DTT (FIG. 2) or by DTE or β-mercaptoethanol.

[2] = test system: unknown RNase in psoralen biotin; assay: Integrity of psoralen biotin labeled Millennium Markers after 37° C., 16 hours; format: biochemical; conditions: 5 mM DTT; 90° C. for 10 minutes; then 37° C. for 16 hours
Description: The Millennium™ Markers (Ambion, Inc.) are a set of RNA size markers from 0.5 to 9 kb in length. They are used for determining the length of an unknown RNA. These markers were being labeled with biotin using a psoralen biotin labeling procedure so that they could be detected non-isotopically on a nylon membrane. However, if the Millennium™Markers were incubated at 37° C. for 16 hours after labeling with the psoralen biotin, they were degraded.

[3] = pH 7.0; cited from earlier work
[4] = test system: RNase mixture (RNase A, RNase 1, RNase T1); assay: Isotopic RNase inactivation assay (radioactive RNA probe, acrylamide gel); format: biochemical, human, E. coli and a fungus; conditions: 20 mM DTT, 60° C. for 20 minutes
Description: FIG. 1. DTT-heat inactivation of different RNase concentrations. The RNase mixture was made to different concentrations in 20 mM DTT: 1 mM sodium citrate (pH 6.4). The RNase samples were incubated at 60° C. for 20 minutes. A radioactive RNA probe was added to the treated RNase samples, incubated at 37° C. for 16 hours, fractionated in a denaturing 5% acrylamide gel and exposed to x-ray film.
The inventors routinely perform assays on RNA designed to assess RNase activity in a sample. Two different assays are typically used for the detection of ribonuclease activity, non-isotopic and isotopic. Each assay generates similar data with regard to the sensitivity of detection. In both assays, the inactivation process is typically performed on a mixture of three different ribonucleases: RNase A, RNase 1, and RNase T1. Each ribonuclease is purified from a different species: […], E. coli and a fungus, respectively. The three RNases are very different from each other in their origin, substrate specificity and protein sequence. In this way, the inactivation process can test three completely different but well characterized ribonucleases. The standard stock RNase mixture employed in the following examples is prepared by combining 1 μl RNase 1 (100 U/μl; Ambion), 1 μl RNase cocktail (RNase A, 0.5 U/μl; RNase T1, 20 U/μl, Ambion) and 98 μl water. […]

SMILES: O[C@H](CS)[C@H](O)CS [DTT, dithiothreitol]
- inhibition of reverse transcription by MMLV reverse transcriptase [1]: does not inhibit; also recorded: not inhibited
- integrity of psoralen biotin labeled Millennium Markers [2]: remained intact
- redox potential [3]: −0.33 volts
- concentration of RNase mixture completely inactivated ([4]; 1 mM sodium citrate (pH 6.4), isotopic assay): up to 200 ng/ml
- RNase inactivation in different buffers and solutions ([4]; RNase mixture 200 ng/ml, 17 solutions, isotopic): inactivated RNase activity in all of buffers and solutions tested
